Measurements from article PMC10287566, “Signaling-specific inhibition of the CB1 receptor for cannabis use disorder: phase 1 and phase 2a randomized trials” (Nature Medicine, 2023).
Like-named read-outs stand apart in the source and are kept apart here.

How the values were obtained:
mice [1] = experiment: THC-induced increase in food intake (fasting-refeeding); format: in vivo
volunteers with CUD = experiment: Phase 2a study, plasma steroids, endocannabinoids, THC and metabolites; format: in vivo, human
Method: THC and its metabolites (11-OH-THC and 11-COOH-THC) were assessed at the same timepoints. […] THC and its metabolites analyses were performed using PD dataset (n = 13 for both doses).
PK parameters for AEF0117 were subject to descriptive statistics separately for each treatment group.
ALLO, DHEA, PREG and TESTO, as well as AEA and 2-AG, were measured. Data were analyzed using a global crossover MRMM analysis on the PD dataset (n = 13 per dose cohort).

[2] = 91-d repeated oral toxicity study in dogs (GLP); format: in vivo; details: both sexes, Beagle, dog, in vivo
dogs = experiment: 91-d repeated oral toxicity study in dogs (GLP); format: in vivo
mice [3] = experiment: THC-induced impairment of reality testing; format: in vivo
mice [4] = experiment: THC-induced impairment of long-term memory (object recognition); format: in vivo
mice [5] = experiment: Glucocorticoid (corticosterone) secretion in mice; format: in vivo; details: mice, highest dose tested 10 mg/kg
Method: Blood sampling was performed 2, 5, 8 and 24 h after dosing (n = 3 per sex per dose per sampling time). For blood sampling, mice were anaesthetized under isoflurane, and blood was collected by cardiac puncture. Blood was centrifuged, and plasma was taken and frozen at −80 °C until quantifications of corticosterone by GC–MS/MS.

endogenous mouse CB1 = biological target: T1, endogenous mouse CB1 (Mus musculus, UniProt P47746); experiment: THC-induced p-ERK1/2 in STHdhQ7/Q7 cells; format: cell-based; details: STHdhQ7/Q7, THC 10 µM; read-out: IC50, inhibition of THC-induced p-ERK1/2
T1 construct: a striatum-derived cell line that endogenously express murine CB1; host or cells: STHdhQ7/Q7
T1 sequence (P47746 whole entry): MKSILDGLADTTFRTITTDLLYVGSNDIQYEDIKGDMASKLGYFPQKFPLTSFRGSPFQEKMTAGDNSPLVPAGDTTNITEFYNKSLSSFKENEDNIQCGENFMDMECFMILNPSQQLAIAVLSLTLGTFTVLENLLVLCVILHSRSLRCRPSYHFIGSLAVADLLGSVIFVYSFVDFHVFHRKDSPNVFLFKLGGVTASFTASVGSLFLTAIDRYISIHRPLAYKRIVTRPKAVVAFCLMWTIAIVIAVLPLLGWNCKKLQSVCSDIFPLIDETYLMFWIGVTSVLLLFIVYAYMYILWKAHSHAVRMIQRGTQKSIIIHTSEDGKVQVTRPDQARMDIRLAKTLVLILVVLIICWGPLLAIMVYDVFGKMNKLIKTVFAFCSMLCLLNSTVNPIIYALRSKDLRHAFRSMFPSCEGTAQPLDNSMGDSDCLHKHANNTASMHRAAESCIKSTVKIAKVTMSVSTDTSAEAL

[6] = Plasma pharmacokinetics/toxicokinetics in dogs (oral and i.v.); format: in vivo; details: both sexes, Beagle, dog; for bioavailability: ratio of AUC per os and i.v.
Method: For both conditions, animals were fasted overnight before dosing and up to approximately 2 h afterwards. […] Blood samples were drawn from the cephalic or jugular veins at the following timepoints: before dose and then at 0.125 h (7.5 min), 0.25 h, 0.5 h, 1 h, 2 h, 4 h, 6 h, 8 h, 10 h, 24 h and 48 h after dosing.
Blood samples were immediately cooled on ice. Plasma was prepared by centrifugation for 7 min at 1,600g under refrigeration (4 ± 2 °C), performed within 15 min at maximum after blood sampling. Plasma was divided into two polypropylene tubes containing at least 500 µl and then stored frozen (≤−70 °C) until assay.
For all studies in rats and the 91-d toxicity study in dogs, the timepoints on days 1, 28 and 91 were: before dose and 1, 3, 5, 8 and 24 h after dose. For the 28-d toxicity study in dogs, the timepoints on days 1 and 28 were: before dose and 1, 2, 4, 8, and 24 h after dose. In both species, only mean pre-dose plasma concentrations were calculated on day 14 for the 28-d study and on day 28 for the 91-d study. For the experiments in rats, blood samples for drug analysis were taken from the satellite animals used for the toxicokinetic (TK) analysis (n = 3 per sex per timepoint and per group). For experiments performed in dogs, blood samples were drawn from the cephalic or jugular veins of all animals (n = 3 per sex per group).
TK analysis was performed separately per sex on mean concentrations by a non-compartmental analysis (NCA). The linearity of exposure was evaluated by comparison of the AUC/dose and Cmax/dose ratios. Possible accumulation was evaluated from the ratio of AUC on day 28 and on day 1 for each dose level and each sex. Samples lower than the limit of quantification (LLQ) values (that is, < 8.00 ng ml^−1 in rats and <20.0 ng ml^−1 in dogs) were not included in the calculation of TK parameters.

healthy volunteers = format: in vivo, human; details: SAD
Method: Participants were admitted to the research clinic at midday before dosing (day −1). In the SAD study, they remained in-house until day 8 for PK and PD samples and safety assessments. In the MAD study, participants remained in-house until day 14 and returned to the research facility on an outpatient basis to have PK and safety assessments at 216 h and 264 h (day 16 and day 18) after their last dose (day 7). Safety monitoring (physical examinations, vital sign measurements, 12-lead ECGs, clinical safety laboratory tests and AE monitoring) were performed throughout the studies. Psychometrics tests (Bond & Lader VAS, Addiction Research Center Inventory (49-item short form) (ARCI-49) and Profile of Mood States 65 self-report items (POMS-65)) and the Columbia-Suicide Severity Rating Scale (C-SSRS) test were performed at baseline, before dose and at 4 h and 24 h after dose on day 1 and day 7 (MAD study, only) and C-SSRS only at 24 h.

mice [7] = experiment: THC-induced decrease in social interaction; format: in vivo
rats = experiment: Respiration in unrestrained conscious rats (GLP)
mice [8] = experiment: Anxiety-related behavior, elevated plus maze, repeated treatment; format: in vivo; details: mice, elevated plus maze, highest dose tested 15 mg/kg
From the text: Anxiety-like behaviors were studied in the elevated plus maze (EPM), a rodent model used to evaluate the putative anxiogenic or anxiolytic effects of pharmacological compounds. Depression-related behaviors were studied using the sucrose preference test as a model of anhedonia, one of the cardinal symptoms of depression.
The EPM apparatus comprises four elevated arms arranged in a cross-like shape, with the two opposite arms enclosed by walls and the other two arms open. For all experiments, mice were placed in the center of the EPM and were free to explore the maze for 5 min after receiving the treatment. The time spent and the number of entries into the open and closed arms were measured by an automatic video tracking system (EthoVision XT version 12, Noldus Information Technology). A decrease in the percentage of visits and/or the time spent in open arms is considered an index of increased anxiety.
The EPM assessment was done on day 26, and the sucrose preference test was done on day 28.

[9] = end of drug withdrawal period (week 18)
[10] = iv, 0.7 mg/kg, dogs i.v. 0.7 mg/kg
[11] = po, 0.7 mg/kg, dogs po 0.7 mg/kg single
[12] = po, 2 mg/kg, dogs po 2 mg/kg single, 91-day tox study
[13] = po, 2 mg/kg, dogs po 2 mg/kg theoretical (approx. 0.5 mg/kg received), 28-day tox study
[14] = po, 9 mg/kg, dogs po 9 mg/kg single, 28-day tox study
[15] = po, 20 mg/kg, dogs po 20 mg/kg single, 91-day tox study
[16] = po, 36 mg/kg, dogs po 36 mg/kg single, 28-day tox study
[17] = po, 65 mg/kg, dogs po 65 mg/kg single, 91-day tox study
[18] = Impairment of social interaction

COc1ccc(CO[C@H]2CC[C@@]3(C)C(=CC[C@H]4[C@@H]5CC[C@H](C(C)=O)[C@@]5(C)CC[C@@H]43)C2)cc1 [AEF0117, 3β-(4-methoxybenzyloxy)pregn-5-en-20-one]
THC's effects on food intake (mice [1]): inhibited
% Inhibition (mice [1]; Increase in food intake): 100%
ID50 (mice [1]; Increase in food intake): 0.015 mg/kg
ID100 (mice [1]; Increase in food intake): 0.05 mg/kg
plasma THC and its metabolites, AEF0117 vs placebo periods (volunteers with CUD): no statistically significant differences
NOAEL at 91 d ([2]; 91-d repeated oral): > 65 mg/kg/day
NOAEL at 91 day ([2]; oral, 91-day, highest dose tested): 65 mg/kg/day
change in eosinophil count (dogs; all dose groups, week 5): -41%
change in eosinophil count (dogs; all dose groups, week 14): -54%
change in lymphocyte count (dogs; all dose groups, week 14): -17 to -24%
change in eosinophil count (dogs; [9]): -66%
change in lymphocyte count (dogs; [9]): -19%
change in thymus weight vs vehicle (dogs; end of treatment period): -15 to -24%
THC impairment in reality testing (mice [3]): inhibited
% Inhibition (mice [3]; Impairment of reality testing): 100%
ID100 (mice [3]; Impairment of reality testing): ≤ 0.015 mg/kg
THC's effects on long-term object recognition memory (mice [4]): inhibited
% Inhibition (mice [4]; Impairment of long-term memory): 100%
ID100 (mice [4]; Impairment of long-term memory): ≤ 0.005 mg/kg
Overall effect: increase in glucocorticoid secretion (mice [5]): No
IC50 (endogenous mouse CB1): 300 nM
Tmax ([6]; dogs po 0.7 mg/kg single): 2.67 h
Tmax ([6]; dogs po 2 mg/kg theoretical (approx. 0.5 mg/kg received), 28-day tox study): 4 h
Tmax ([6]; dogs po 9 mg/kg single, 28-day tox study): 6 h
Tmax ([6]; dogs po 20 mg/kg single, 91-day tox study): 4 h
Tmax ([6]; dogs po 36 mg/kg single, 28-day tox study): 4 h
Tmax ([6]; dogs po 65 mg/kg single, 91-day tox study): 4 h
half-life ([6]; dogs, read-out: terminal half-life (converted)): 35.9 h
AUC(0-t) [6, 10]: 2190 ng·h/mL
Cmax [6, 10]: 505 ng/mL
half-life ([6]; iv, 0.7 mg/kg, dogs i.v. 0.7 mg/kg, manual linear regression of last three points, read-out: t½ (converted)): 35.9 h
half-life ([6]; iv, 0.7 mg/kg, dogs iv, read-out: half-life): 33.5 to 38.2 h
Tmax ([6]; iv, dogs i.v. 0.7 mg/kg): 0.125 h
bioavailability ([6]; oral, 0.7 mg kg^−1, dogs): ~68%
AUC(0-t) [6, 11]: 1450 ng·h/mL
Cmax [6, 11]: 138 ng/mL
half-life ([6]; po, 0.7 mg/kg, dogs po 0.7 mg/kg, manual linear regression of last three points, read-out: t½ (converted)): 28 h
bioavailability ([6]; po, 0.7 mg/kg, dogs): 68%
AUC(0-t) [6, 12]: 2910 ng·h/mL
Cmax [6, 12]: 241 ng/mL
AUC(0-t) [6, 13]: 1020 ng·h/mL
Cmax [6, 13]: 95 ng/mL
AUC(0-t) [6, 14]: 18500 ng·h/mL
Cmax [6, 14]: 1200 ng/mL
AUC(0-t) [6, 15]: 26500 ng·h/mL
Cmax [6, 15]: 2530 ng/mL
AUC(0-t) [6, 16]: 50300 ng·h/mL
Cmax [6, 16]: 3480 ng/mL
AUC(0-t) [6, 17]: 43500 ng·h/mL
Cmax [6, 17]: 3300 ng/mL
half-life ([6]; po, dogs per os, read-out: half-life): 24.4 to 31.6 h
ARCI 49 sub-scores (healthy volunteers; 0.2-6 mg vs placebo): No relevant trend
Bond and Lader VAS (alertness, contentedness, calmness) (healthy volunteers; 0.2-6 mg vs placebo): No clinically relevant differences
POMS 65 sub-scales (healthy volunteers; 0.2-6 mg vs placebo): No relevant trend
C-SSRS: number of subjects with suicidal ideation or behavior (healthy volunteers; all doses 0.2-6 mg, Day 1 and Day 2): 0 n (%)
THC's effects on social interaction (mice [7]): inhibited
% Inhibition (mice [7]; [18]): 100%
ID50 (mice [7]; [18]): 0.005 mg/kg
ID100 (mice [7]; [18]): 0.015 mg/kg
adverse effects on respiration (rats): did not show any adverse effects
Overall effect: increase in anxiety-related behaviors (mice [8]): No
